Assays:
[1] = system: maximal electroshock seizure; test: Maximal Electroshock Seizure (MES) rat model; type: in vivo; conditions: po, 0.5 hour
Method: Male, Sprague-Dawley rats and CD-1 mice were used for all studies. All animals were allowed ad-lib access to food and water except during experiment. Animals were housed within an animal vivarium maintained under a 12 h light:dark cycle (lights on: 07:00 h), and all experiments were conducted in the animals light phase. For all experiments, animals were habituated to the vivarium for a minimum of 72 h before experimentation. The experimental procedures used in the present investigation were conducted under the Association for Assessment and Accreditation of Laboratory Animal Care (AAALAC) and the Canadian Council on Animal Care (CCAC) guidelines. All compounds were sonicated in 5% Tween 80® in saline or methylcellulose 0.5% (wgt/vol), using MC and sterile water and injected in a dose volume of 5 ml/kg or 10 ml/kg (rat), and 10 ml/kg (mouse). Drugs were administered by either the oral, intraperitoneal or intravenous route. Male Sprague-Dawley rats of body weight 80-100 g were used for these studies. Each experiment was conducted over 3 consecutive days. On day 1 and 2, each rat received a single electrical stimulus (150 mA, 0.2 s duration, 60 Hz) via corneal electrodes moistened with saline (Shock stimulator type 221: Harvard apparatus). […] Typically this reflected approximately 70-90% of the initial group. […] On the test day following a defined drug pretreatment period, rats received a maximal electroshock (150 mA, 0.2 s duration, 60 Hz) via corneal electrodes. Protection was defined as absence of a full tonic seizure within 10 s of stimulus delivery. Twenty minutes before the MES procedure, the animals were tested on a fixed speed rotorod (best score from 3 trials at 8 r.p.m, trial duration=60 s) to give an early assessment of drug effect on gross motor function.

[2] = system: fully kindled (stage 5) seizures, hippocampal kindled rat; test: Hippocampal kindled rat model (focal seizures); type: in vivo; conditions: for suppression of fully kindled (stage 5) seizures compared to vehicle controls: <100 mg/kg i.p.
Description: Hippocampal Kindled Rat Test is designed to quantify the anti-convulsant effects of a test compound in the kindled rat model. Rats treated by i.p. injection.
The Kindled Rat is a model of temporal lobe epilepsy, which is the most common and drug-resistant type of adult focal epilepsy (Morimoto et al., 2004). […] This acquired hyper-responsiveness is called kindling and results not only in increased seizure responses but also in an elongation of the after-discharge duration seen on an EEC recording.
Electrodes are implanted into the hippocampus of anesthetized rats, which are then allowed to recover for one week. Following the rapid kindling protocol (Lothman and Williamson, Brain Res 1994, 649:71-84), the rats are stimulated with 200 jiA for 10 s, 50 Hz, every 30 minutes for six hours on alternate days until they are fully kindled (4-5 stimulus days). After one week of rest, the animals are given the same electrical stimulus which serves as a baseline. The animals are pretreated with the test compound (generally via i.p. injection) and then tested at various intervals. At each time point, the behavioral seizure score (BSS) and after-discharge duration (ADD) is recorded. The BSS's are scored according to the following criteria (Racine, Electroencephalogr Clin Neurophysiol 1972, 32:281-94): Stage 1—mouth and facial clonus; Stage 2—stage 1 plus head nodding; Stage 3—stage 2 plus forelimb clonus; Stage 4—stage 3 plus rearing; and Stage 5—stage 4 plus repeated rearing and falling.
The after discharge threshold (ADT) can also be measured in the kindled rat. The ADT is defined as the lowest current at which an after discharge of at least 4 s is elicited. […] The initial stimulation is conducted at an intensity of 20 uA with 10 uA increments every 1-2 min until an after discharge is elicited. Fifteen minutes after the pre-drug threshold determination, a single dose of the test substance is administered to two animals in a volume of 0.04 ml/10 g body weight. In this way the animals serves as its own control. The individual rat ADT is then determined at varying times (i.e., 0.25, 1, 2, and 4 hr) after drug administration.
Ability of a compound to block behavioral seizures and/or decrease the afterdischarge duration (ADD) in a hippocampal kindled rat model. The hippocampal kindled rat provides an experimental model of focal seizures that become secondarily generalized. This rat model is useful for not only identifying compounds effective against partial seizures, but also allows for the investigation of complex brain networks that may contribute to seizure spread and generalization from a focus. Moreover, of the various electrical kindling paradigms described in the literature, the hippocampal kindling model offers several distinct advantages for the routine screening and evaluation of potential anticonvulsant compounds. First, this model provides a temporal framework for assessing drug efficacy in a focal seizure model. Specifically, the refractory period of individual animals is sufficiently short to permit repeated stimulations over a short time span. Second, this kindled rat model can be employed to assess the ability of an investigational compound to block fully kindled seizures evoked by an electrical stimulus. Finally, the hippocampal kindled rat model can also be used to assess the ability of an investigational compound to elevate threshold to focal firing modulation by an investigational drug. Therefore, compounds with a subtle effect on focal seizure activity in the kindled rat are not likely to be overlooked in the threshold test, thereby making the hippocampal kindled rat a useful screen at the ETSP.
Animals are first surgically prepared for kindling acquisition. Adult, male Sprague-Dawley rats (275-300 g) are surgically implanted with bipolar electrodes. Briefly, a bipolar electrode is stereoaxically implanted into the ventral hippocampus (AP −3.6, ML −4.9, VD −5.0 from dura, incisor bar +5.0) under ketamine-xylazine anesthesia. […]

[3] = system: gross motor function; test: Rotorod, mouse (Table 8); conditions: in vivo, po, Table 8, mouse
[4] = system: gross motor function; test: Fixed speed rotorod, rat (gross motor function); conditions: Sprague-Dawley, in vivo, po
Method: On the test day following a defined drug pretreatment period, rats received a maximal electroshock (150 mA, 0.2 s duration, 60 Hz) via corneal electrodes. Protection was defined as absence of a full tonic seizure within 10 s of stimulus delivery. Twenty minutes before the MES procedure, the animals were tested on a fixed speed rotorod (best score from 3 trials at 8 r.p.m, trial duration=60 s) to give an early assessment of drug effect on gross motor function.

Row | ED50 at 0.5 hour [3] [mg/kg] | ED50 at 0.5 hour [4] [mg/kg] | SMILES | ED50 [1] [mg/kg] | Average Seizure ([2]; 20 mg/kg) | N/F, number of animals active over the number tested ([2]; 20 mg/kg) | Average Seizure ([2]; 40 mg/kg) | N/F, number of animals active over the number tested ([2]; 40 mg/kg) | Average Seizure ([2]; 80 mg/kg) | N/F, number of animals active over the number tested ([2]; 80 mg/kg) | suppression of fully kindled (stage 5) seizures compared to vehicle controls [2] | EC50, reduction of seizure score (seizure severity) ([2]; hippocampal kindled rat, Example 8) [mg/kg]
1 | > 170 | > 500 | C[C@@H](Oc1cc(Cl)cc(C(F)(F)F)c1)C(N)=O [I(D), (2R)-2-[3-chloro-5-(trifluoromethyl)-phenoxy]propanamide] | 22.7 | 4.9 | 1/8 | 2.5 | 1/8 | 1 | 5/8 | dose related suppression | 49.4 ± 1.47
2 | > 130 | > 500 | NC(=O)COc1cc(C(F)(F)F)cc(C(F)(F)F)c1 [I(F), 2-[3,5 bis(trifluoromethyl)-phenoxy]acetamide;] | 18.4 | – | – | – | – | – | – | dose related suppression | –

From patent US10604476B2, “Fluorinated amide derivatives and their uses as therapeutic agents” (Trillium Therapeutics Inc., priority 2015, dated 2020)
